US20150038438A1, “ANTIBACTERIAL COMPOUNDS AND METHODS FOR USE” (PTC THERAPEUTICS, INC., priority 2011, published 2015)
Converted amounts (≈) assume the structure as drawn. Counter-ions that a name gives are not always drawn. Like-named read-outs stand apart in the source and are kept apart here.

Legend:
Test in all cases: Antibacterial activity, microbroth dilution method (MIC)
[1] = system: Gram-positive Staphylococcus aureus (S. aureus) 29213; format: cell-based; details: Gram-positive S. aureus 29213; for MIC: Staphylococcus aureus
Procedure, shortened: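 Read-out: visual absence of growth. The lowest concentration meeting this gives the MIC, expressed in μg/mL, with microbroth dilution as the method.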

[2] = system: super sensitive Gram-negative Escherichia coli (E. coli) BAS849; format: cell-based; details: for MIC: Escherichia coli, read-out: MIC, E. coli BAS849
Procedure, shortened: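 Growth inhibition by microbroth dilution. MIC = lowest μg/mL with no visible growth. Strain 25922 is the control Gram-negative; BAS849 is hypersensitive.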

[3] = system: control Gram-negative E. coli 25922 strain; format: cell-based, Escherichia coli; details: for MIC: Escherichia coli
Procedure, shortened: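 Each strain is exposed to test compound in a microbroth dilution series; visible growth is scored macroscopically, and the lowest growth-free concentration is recorded as MIC in μg/mL.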

[4] = super sensitive Gram-negative E. coli BAS849, microbroth dilution

Compound	MIC [1] [µg/mL]	MIC [2, 4] [µg/mL]	MIC [3] [µg/mL]	MIC [2] [µg/mL]	MIC, S. aureus 29213 [1]	MIC, E. coli BAS849 [2, 4]	MIC, E. coli 25922 [3]
Cl.Cn1c(CNCc2ccccc2)cc2cc3c(cc21)CCCc1c-3[nH]c(=O)c(C(=O)O)c1O [Cpd 34, 10-((benzylamino)methyl)-4-hydroxy-9-methyl-2-oxo-1,2,5,6,7,9-hexahydropyrido[3′,2′:6,7]cyclohepta[1,2-f]indole-3-carboxylic acid hydrochloride]	1 to 3.5	< 1	1 to 3.5				
Cl.Cn1c(CN2CCC2)cc2cc3c(cc21)CCCc1c-3[nH]c(=O)c(C(=O)O)c1O [Cpd 24, 10-(azetidin-1-ylmethyl)-4-hydroxy-9-methyl-2-oxo-1,2,5,6,7,9-hexahydropyrido[3′,2′:6,7]cyclohepta[1,2-f]indole-3-carboxylic acid hydrochloride]	3.5 to 12.5	< 1	< 1				
CC(CO)NCc1cc2cc3c(cc2n1C)OCCc1c-3[nH]c(=O)c(C(=O)O)c1O.Cl (stereo not drawn) [Cpd 178, 4-hydroxy-10-(((1-hydroxypropan-2-yl)amino)methyl)-9-methyl-2-oxo-2,5,6,9-tetrahydro-1H-pyrido[2′,3′:4,5]oxepino[3,2-f]indole-3-carboxylic acid hydrochloride]	12.5 to 150	< 1	12.5 to 150				
CC(C)NCc1cc2cc3c(cc2n1C)OCCc1c-3[nH]c(=O)c(C(=O)O)c1O.Cl [Cpd 90, 4-hydroxy-10-((isopropylamino)methyl)-9-methyl-2-oxo-2,5,6,9-tetrahydro-1H-pyrido[2′,3′:4,5]oxepino[3,2-f]indole-3-carboxylic acid hydrochloride]	12.5 to 150	< 1	< 1				
CC1COc2cc(N3C[C@@H]4[C@@H](N)[C@@H]4C3)ccc2-c2[nH]c(=O)c(C(=O)O)c(O)c21 (stereo partly drawn) [Cpd 86, 9-((cis,cis)-6-amino-3-azabicyclo[3.1.0]hexan-3-yl)-4-hydroxy-5-methyl-2-oxo-1,2,5,6-tetrahydrobenzo[2,3]oxepino[4,5-b]pyridine-3-carboxylic acid hydrochloride]	12.5 to 150	< 1	3.5 to 12.5				
CN(C)c1ccc2c(c1)CCCc1c-2[nH]c(=O)c(C(=O)O)c1O [Cpd 3, 9-(dimethylamino)-4-hydroxy-2-oxo-2,5,6,7-tetrahydro-1H-benzo[6,7]cyclohepta[1,2-b]pyridine-3-carboxylic acid]	3.5 to 12.5 (≈ 11.1 to 39.8 µM)	< 1	3.5 to 12.5 (≈ 11.1 to 39.8 µM)				
Cl.Cn1c(CN2CCOCC2)cc2cc3c(cc21)CCCc1c-3[nH]c(=O)c(C(=O)O)c1O [Cpd 41, 4-hydroxy-9-methyl-10-(morpholinomethyl)-2-oxo-1,2,5,6,7,9-hexahydropyrido[3′,2′:6,7]cyclohepta[1,2-f]indole-3-carboxylic acid hydrochloride]	1 to 3.5	< 1	3.5 to 12.5				
Cl.Cn1c(CN2CCCC2)cc2cc3c(cc21)CCCc1c-3[nH]c(=O)c(C(=O)O)c1O [Cpd 50, 4-hydroxy-9-methyl-2-oxo-10-(pyrrolidin-1-ylmethyl)-1,2,5,6,7,9-hexahydropyrido[3′,2′:6,7]cyclohepta[1,2-f]indole-3-carboxylic acid hydrochloride]	3.5 to 12.5	< 1	< 1				
N[C@@H]1[C@H]2CN(c3ccc4c(c3)CCCc3c-4[nH]c(=O)c(C(=O)O)c3O)C[C@@H]12 [Cpd 9, 9-((cis,cis)-6-amino-3-azabicyclo[3.1.0]hexan-3-yl)-4-hydroxy-2-oxo-2,5,6,7-tetrahydro-1H-benzo[6,7]cyclohepta[1,2-b]pyridine-3-carboxylic acid trifluoroacetate]	3.5 to 12.5		< 1	< 1			
CN(C)CCNc1ccc2c(c1)CCCc1c-2[nH]c(=O)c(C(=O)O)c1O.Cl [Cpd 113, 9-((2-(dimethylamino)ethyl)amino)-4-hydroxy-2-oxo-2,5,6,7-tetrahydro-1H-benzo[6,7]cyclohepta[1,2-b]pyridine-3-carboxylic acid hydrochloride]	12.5 to 150	3.5 to 12.5	12.5 to 150				
NC1C2CN(c3ccc4c(c3)C(O)CCc3c-4[nH]c(=O)c(C(=O)O)c3O)CC12.O=C(O)C(F)(F)F (stereo not drawn) [Cpd 14, 9-((cis,cis)-6-amino-3-azabicyclo[3.1.0]hexan-3-yl)-4,7-dihydroxy-2-oxo-2,5,6,7-tetrahydro-1H-benzo[6,7]cyclohepta[1,2-b]pyridine-3-carboxylic acid trifluoroacetate salt]					* (an MIC value between >12.5 μg/mL and ≦150 μg/mL)	* (an MIC value between >12.5 μg/mL and ≦150 μg/mL)	* (an MIC value between >12.5 μg/mL and ≦150 μg/mL)
C#CCNCc1cc2cc3c(cc2n1C)CCCc1c-3[nH]c(=O)c(C(=O)O)c1O.Cl [Cpd 45, 4-hydroxy-9-methyl-2-oxo-10-((prop-2-yn-1-ylamino)methyl)-1,2,5,6,7,9-hexahydropyrido[3′,2′:6,7]cyclohepta[1,2-f]indole-3-carboxylic acid hydrochloride]	1 to 3.5	< 1	1 to 3.5				
COCC(C)NCc1cc2cc3c(cc2n1C)CCCc1c-3[nH]c(=O)c(C(=O)O)c1O.Cl (stereo not drawn) [Cpd 150, 4-hydroxy-10-(((1-methoxypropan-2-yl)amino)methyl)-9-methyl-2-oxo-1,2,5,6,7,9-hexahydropyrido[3′,2′:6,7]cyclohepta[1,2-f]indole-3-carboxylic acid hydrochloride]	3.5 to 12.5	< 1	1 to 3.5				
Cl.Cn1c(CNC2CC2)cc2cc3c(cc21)CCCc1c-3[nH]c(=O)c(C(=O)O)c1O [Cpd 36, 10-((cyclopropylamino)methyl)-4-hydroxy-9-methyl-2-oxo-1,2,5,6,7,9-hexahydropyrido[3′,2′:6,7]cyclohepta[1,2-f]indole-3-carboxylic acid hydrochloride]	3.5 to 12.5	< 1	1 to 3.5				
CC(CN(C)C)NCc1cc2cc3c(cc2n1C)CCCc1c-3[nH]c(=O)c(C(=O)O)c1O.Cl.Cl (stereo not drawn) [Cpd 160, 10-(((1-(dimethylamino)propan-2-yl)amino)methyl)-4-hydroxy-9-methyl-2-oxo-1,2,5,6,7,9-hexahydropyrido[3′,2′:6,7]cyclohepta[1,2-f]indole-3-carboxylic acid dihydrochloride]	12.5 to 150	< 1	3.5 to 12.5				
CN(C)C1CCN(Cc2cc3cc4c(cc3n2C)CCCc2c-4[nH]c(=O)c(C(=O)O)c2O)C1.Cl.Cl (stereo not drawn) [Cpd 47, 10-((3-(dimethylamino)pyrrolidin-1-yl)methyl)-4-hydroxy-9-methyl-2-oxo-1,2,5,6,7,9-hexahydropyrido[3′,2′:6,7]cyclohepta[1,2-f]indole-3-carboxylic acid dihydrochloride]	3.5 to 12.5	< 1	3.5 to 12.5				
N[C@@H]1[C@H]2CN(c3ccc4c(c3)NCCc3c-4[nH]c(=O)c(C(=O)O)c3O)C[C@@H]12 [Cpd 97, 9-((cis,cis)-6-amino-3-azabicyclo[3.1.0]hexan-3-yl)-4-hydroxy-2-oxo-2,5,6,7-tetrahydro-1H-benzo[b]pyrido[2,3-d]azepine-3-carboxylic acid hydrochloride]	12.5 to 150	1 to 3.5	3.5 to 12.5				
CNCc1cc2cc3c(cc2n1C)CCCc1c-3[nH]c(=O)c(C(=O)O)c1O.Cl [Cpd 22, 4-hydroxy-9-methyl-10-((methylamino)methyl)-2-oxo-1,2,5,6,7,9-hexahydropyrido[3′,2′:6,7]cyclohepta[1,2-f]indole-3-carboxylic acid hydrochloride]	3.5 to 12.5	< 1	< 1				
